# Entries after “also recorded” stand apart in the source; their conditions may differ.
# Key:
# sAPPα [1] = experiment: sAPPα AlphaLISA in SH-SY5Y cells; format: cell-based, human; conditions: for sAPPα levels after 24 h: SH-SY5Y, after 24 h (FIG. 12B); for sAPPα in SH-SY5Y cells: SH-SY5Y 150 K/well, 1, 5, 10 and 50 μM, 24 hours, AlphaLISA
# Description: Media (20 μL) was collected every 2 h for 24 h (plate was shaken prior to media collection to disburse sAPPα) from each treatment group.
# p-GSK3β (Ser 9) [2] = experiment: phospho GSK3β / total GSK3β western blot in SH-SY5Y cells; format: cell-based, human; conditions: SH-SY5Y 100 k/well, 5 uM
# Excerpt: FIG. 14B is a graph showing each blot normalized to actin levels.
# FIG. 16C is a graph decpiting the normalized to actin levels and the ratio of (phosphor-GSK3β/Actin) to (Total-GSK3β/Actin) from the Western blots in FIGS. 16A & B, calculated by densitometry.
# sAPPα [3] = experiment: Primary HTS: sAPPα AlphaLISA in CHO-7W cells; format: cell-based, Chinese Hamster
# Description: A HTS of portions of the UCLA compound library was undertaken. The primary HTS was carried out at the MSSR facility at UCLA using CHO-7W cells. An initial screen of approximately 7000 compounds was performed using the NIH and NPW libraries, 3 plates from the targeted libraries (TAR), full LOPAC and NKIL libraries, and four plates from the Emerald/Synergy (ES) library. CHO-7W cells (5 K/well) were treated with 5 μM compounds for 48 h followed by collection of media and determination of sAPPα using an AlphaLISA.
# BAP31 [4] = experiment: Quantitative global proteomics (LC-MS/MS) of treated SH-SY5Y cells; format: cell-based, human; conditions: treated vs vehicle (DMSO) SH-SY5Y cells
# Description: Tryptic peptides were subsequently labeled with isobaric tandem mass tags (ThermoFischer Scientific) to provide relative quantitation between samples, and then fractionated using high pH reverse-phase chromatography for increased proteome coverage. The multiplexed samples were analyzed by liquid chromatography tandem mass spectrometry (LC-MS/MS).
# BAP31 [5] = experiment: BAP31 immunoblot (WB) in SH-SY5Y cells; format: cell-based, human; conditions: SH-SY5Y after treatment
# RTN3 monomer = RTN3 monomer immunoblot (WB) in SH-SY5Y cells
# RTN3 = experiment: Oral treatment of ApoE4:5xFAD mice, brain RTN3; format: in vivo; conditions: E4:FAD mice, orally 4 mg/kg for 18 days
# sAPPα [6] = experiment: Oral treatment of ApoE4:5xFAD mice, brain sAPPα; format: in vivo; conditions: E4:FAD mice, orally 4 mg/kg for 18 days
# p-GSK3β = experiment: Oral treatment of ApoE4:5xFAD mice, brain p-GSK3β; format: in vivo; conditions: E4:FAD mice, orally 4 mg/kg for 18 days
# p-GSK3β (Ser 9) [7] = conditions: Deng et al., 2015; used at 25 nM as positive control; cited from earlier work
compound,measurement,setting,value
"COc1cc(C(=O)OCCCN2CCCN(CCCOC(=O)c3cc(OC)c(OC)c(OC)c3)CC2)cc(OC)c1OC (racemic) [DDL-402, Dilazep]",sAPPα levels after 24 h,sAPPα [1],significantly increased
same,ratio (phospho-GSK3β/Actin) to (Total-GSK3β/Actin),p-GSK3β (Ser 9) [2]; 18 h,trend to increase in p-GSK3β
"CC(Cc1ccccc1)(NC(=O)CN)c1ccccc1 (centres unmarked) [DDL-401, Remacemide]",enhancement of sAPPα in CHO-7W cells,"sAPPα [3]; CHO cells stably expressing human APP, initial HTS",enhancer of sAPPα
same,percent increase in sAPPα levels normalized to control in HTS,"sAPPα [3]; CHO-7W cells 5 K/well, 5 μM compound, 48 h, AlphaLISA",> 25%
same,sAPPα in SH-SY5Y cells,sAPPα [1],significantly (p>0.01) increased; also recorded: increased sAPPα
same,sAPPα in SH-SY5Y cells,sAPPα [1]; listed as Remacemide,sAPPα increase
same,time course of sAPPα in media,"sAPPα [1]; SH-SY5Y 400,000/well, 5 μM, media collected every 2 h for 24 h, vs DMSO",time dependent increase in sAPPα
same,sAPPα levels after 24 h,sAPPα [1],significantly increased
same,levels of tryptic peptides corresponding to BAP31 (MS/MS),BAP31 [4],increase in the levels of tryptic peptides
same,BAP31 by WB,BAP31 [5],no significant increase
same,concentration giving a modest increase in RTN3 monomer levels,"RTN3 monomer; SH-SY5Y, WB",≥ 10 µM
"CN1[C@@H]2CC[C@H]1C[C@@H](OC(=O)c1c[nH]c3ccccc13)C2 [F03, Tropisetron]",phosphorylation of GSK3β,p-GSK3β (Ser 9) [2]; 12 h or 18 h,increases phosphorylation of GSK3β
same,RTN3 levels in the brain,RTN3,slightly enhanced
same,sAPPα in brain,sAPPα [6],slight increase
same,p-GSK3β in brain,p-GSK3β,bigger increase
same,level of RTN3 monomer (~25 kD),"RTN3 monomer; SH-SY5Y 100 k/well, 5 uM, 12 h, vs DMSO or untreated",trended to increase
sAPPα: recombinant sAPPα (25 nM) used as a positive control for GSK3β phosphorylation,"phosphorylation of GSK3β (positive control, literature)",p-GSK3β (Ser 9) [7],increase the phosphorylation of GSK3β
